The record followed here is patent publication US8008425B2, “Thiophene compound having sulfonyl group and process for producing the same” (Nissan Chemical Industries, Ltd., priority 2005, dated 2011).

The nature of this data set: Solubility test. It counts as physicochemical. To be noted: 25° C., ultrasonic waves, 5 mg, solvent added 50 μL by 50 μL. How it is done: The solubility of each of the sulfonylthiophene compounds synthesized in Examples 21 and 22 was determined under ultrasonic waves at 25° C. by adding, to aliquots (5 mg) of the sulfonylthiophene compound, tetrahydrofuran (THF), toluene, N,N-dimethylformamide (DMF), chloroform, ethyl acetate and ethanol 50 μL by 50 μL, respectively, until they were dissolved. The level of solubility was ranked in accordance with the following standards. • ⊚: Dissolved with 50 μL (concentration: 10%) • ◯: Dissolved with 100 μL (concentration: 5%) • Δ: Dissolved with 200 μL (concentration: 2.5%) • X: Not dissolved even by the addition of 500 μL (concentration: 1% or lower)

Regarding `CCCCCCCCS(=O)(=O)c1c(-c2ccc(N(c3ccccc3)c3ccccc3)cc2)sc(-c2ccc(N(c3ccccc3)c3ccccc3)cc2)c1S(=O)(=O)CCCCCCCC` [Example 21, 4,4′-{3,4-bis(octane-1-sulfonyl)-thiophene-2,5-diyl}bis(N,N-diphenylaniline)], the level of solubility entry (Chloroform) is reported as “⊚ (Dissolved with 50 μL (concentration: 10%))”; the level of solubility entry (DMF) is reported as “Δ (Dissolved with 200 μL (concentration: 2.5%))”; the level of solubility result (Ethanol) is given as “X (Not dissolved even by the addition of 500 μL (concentration: 1% or lower))”; the level of solubility entry (Ethyl acetate) is given as “◯ (Dissolved with 100 μL (concentration: 5%))”; the level of solubility entry (THF) is “◯ (Dissolved with 100 μL (concentration: 5%))”; the level of solubility entry (Toluene) was “◯ (Dissolved with 100 μL (concentration: 5%))”.

As to `CCCCCCCCS(=O)(=O)c1cc(-c2ccc(N(c3ccccc3)c3ccccc3)cc2)sc1-c1ccc(N(c2ccccc2)c2ccccc2)cc1` [Example 22, 4,4′-{3-(octane-1-sulfonyl)-thiophene-2,5-diyl}bis(N,N-diphenylaniline)], the level of solubility entry reads like this: (Chloroform) “⊚ (Dissolved with 50 μL (concentration: 10%))”; (DMF) “⊚ (Dissolved with 50 μL (concentration: 10%))”; (Ethanol) “X (Not dissolved even by the addition of 500 μL (concentration: 1% or lower))”; (Ethyl acetate) “⊚ (Dissolved with 50 μL (concentration: 10%))”; (THF) “⊚ (Dissolved with 50 μL (concentration: 10%))”; (Toluene) “⊚ (Dissolved with 50 μL (concentration: 10%))”.
